Columns and labels:
E. coli = experiment: Effect of additives added to thawed competent cells on electroporation efficiency (pCMV-Script plasmid); format: cell-based; details: added after thawing, colonies with additive divided by colonies without
Description: Specifically, galactose (an aldohexose monosaccharide), maltose (an aldohexose disaccharide), mannitol (an aldohexose alcohol), and sorbitol (an aldohexose alcohol) additives were tested.
After two hours of freezing, competent cells were thawed and amounts varying between 0.1% and 5.0% of various sugar or sugar aldoses were added to the thawed cells. 1 μl of 10 pg/μl plasmid, pCMV-Script (Stratagene #211199) in TE buffer or water (or other low-ionic strength buffer) was added to 40 μl of the treated cells in a chilled 1.5 ml Microfuge tube. The cells were gently mixed and chilled.
The DNA-cell mixture was transferred to a chilled electroporation cuvette. The cuvette was pulsed once, using a Bio-Rad II Gene Pulsar, at 1.7 kV (kilo Volts), 200 Ω and 25 μF. The cuvette was immediately removed and 960 μl of SOC medium (2 ml of 20% glucose and 1 ml of 2M Mg per 100 ml of SOB medium) was added to resuspend the cells.
That suspension was transferred to a sterile 15-ml Falcon 2059 polypropylene tube and shaken at 225-250 rpm at 37° C. for 1 hour. We pipetted 2.5 μl of transformed cells into a 100 μl pool of SOC medium on an Amp plate (Sambrook et al. 1997). The cell/media mixture was spread over the Amp plates. The plates were incubated overnight (16-20 hours) at 37° C.

XL1-Blue cells = experiment: Effect of sorbitol added before freezing on electrotransformation efficiency (pUC18 plasmid); format: cell-based, E. coli; details: average of 6 values
Description: The effect of adding sugars, prior to freezing the cells, was tested for improved electroporation efficiency. Sorbitol was chosen as the first test compound.
To determine the optimal concentration of sorbitol, the above protocol was followed to produce electrocompetent bacterial cells. However, before freezing the cells, a solution of sorbitol was added such that the final concentrations of the suspension of cells varied from 0%, 1.0%, 2.0%, and 2.5%.
1 μl of 10 pg/μl plasmid, pUC18 (New England Biolabs) in TE buffer or water (or other low-ionic strength buffer), was added to 40 μl of the treated cells in a chilled 1.5 ml Microfuge tube. Transformed cells were obtained by following the above protocol. Various experiments were run to determine the efficiency of transformation. Five different preparations were tested in triplicate, and each preparation was plated in duplicate.

[1] = additive final concentration 1.0%
[2] = additive final concentration 2.0%
[3] = additive final concentration 0.75%

OC[C@H]1O[C@H](O[C@H]2[C@H](O)[C@@H](O)C(O)O[C@@H]2CO)[C@H](O)[C@@H](O)[C@@H]1O (mixture of isomers) [maltose]
Relative efficiency (E. coli; [1]): 1.50 | Relative efficiency (E. coli; additive final concentration 2.5%): 3.00 | Relative efficiency (E. coli; additive final concentration 3.0%): 1.30 | Relative efficiency (E. coli; additive final concentration 4.0%): 1.50

O=C[C@H](O)[C@@H](O)[C@@H](O)[C@H](O)CO [galactose]
Relative efficiency (E. coli; additive final concentration 0.5%): 2.20 | Relative efficiency (E. coli; [1]): 1.50 | Relative efficiency (E. coli; [2]): 2.40

OC[C@@H](O)[C@@H](O)[C@H](O)[C@H](O)CO [mannitol]
Relative efficiency (E. coli; [3]): 3.00 | Relative efficiency (E. coli; [1]): 2.80 | Relative efficiency (E. coli; additive final concentration 1.25%): 3.30 | Relative efficiency (E. coli; [2]): 2.90 | Relative efficiency (E. coli; additive final concentration 2.20%): 2.80 | Relative efficiency (E. coli; additive final concentration 2.40%): 1.90

OC[C@@H](O)[C@@H](O)[C@H](O)[C@@H](O)CO [sorbitol]
Relative efficiency (E. coli; [3]): 2.20 | Relative efficiency (E. coli; [1]): 2.80 | Relative efficiency (E. coli; additive final concentration 1.50%): 3.10 | Relative efficiency (E. coli; [2]): 1.50 | Efficiency (cfu/ug pUC18) (XL1-Blue cells; Experiment #1, 2.0% sorbitol added before freezing): 1.2 × 10^10 cfu/ug pUC18 | Efficiency (cfu/ug pUC18) (XL1-Blue cells; Experiment #1, 2.5% sorbitol added before freezing): 1.6 × 10^10 cfu/ug pUC18 | Efficiency (cfu/ug pUC18) (XL1-Blue cells; Experiment #2, 1.0% sorbitol added before freezing): 1.23 × 10^10 cfu/ug pUC18 | Efficiency (cfu/ug pUC18) (XL1-Blue cells; Experiment #2, 2.0% sorbitol added before freezing): 1.66 × 10^10 cfu/ug pUC18 | Efficiency (cfu/ug pUC18) (XL1-Blue cells; Experiment #2, 2.5% sorbitol added before freezing): 1.48 × 10^10 cfu/ug pUC18 | Efficiency (cfu/ug pUC18) (XL1-Blue cells; Experiment #3, 1.0% sorbitol added before freezing): 1.03 × 10^10 cfu/ug pUC18 | Efficiency (cfu/ug pUC18) (XL1-Blue cells; Experiment #3, 2.0% sorbitol added before freezing): 1.23 × 10^10 cfu/ug pUC18 | Efficiency (cfu/ug pUC18) (XL1-Blue cells; Experiment #3, 2.5% sorbitol added before freezing): 1.33 × 10^10 cfu/ug pUC18 | Efficiency (cfu/ug pUC18) (XL1-Blue cells; Experiment #4, 2.0% sorbitol added before freezing): 1.29 × 10^10 cfu/ug pUC18 | Efficiency (cfu/ug pUC18) (XL1-Blue cells; Experiment #4, 2.5% sorbitol added before freezing): 1.39 × 10^10 cfu/ug pUC18 | Efficiency (cfu/ug pUC18) (XL1-Blue cells; Experiment #5, 2.0% sorbitol added before freezing): 1.60 × 10^10 cfu/ug pUC18 | Efficiency (cfu/ug pUC18) (XL1-Blue cells; Experiment #5, 2.5% sorbitol added before freezing): 1.60 × 10^10 cfu/ug pUC18
